Data published in US9096539B2, “Substituted 4,5-dihydro-2H-benzo[e]indazole-9-carboxylates for the treatment of diabetes and related disorders” (Council of Scientific & Industrial Research, priority 2012, dated 2015).
Where two headings read alike, the source gives them in different places.

Key:
[1] = target: T1, human recombinant PTP1B enzyme (Homo sapiens, UniProt P18031); assay: Protein tyrosine phosphatase-1B assay (colorimetric kit BML-AK 822); type: biochemical; conditions: read-out: % Inhibition (PTP-1B)
T1 construct: purchased Enzo Life Sciences, USA BML-AK 822
T1 sequence (P18031 1-322 limits assumed): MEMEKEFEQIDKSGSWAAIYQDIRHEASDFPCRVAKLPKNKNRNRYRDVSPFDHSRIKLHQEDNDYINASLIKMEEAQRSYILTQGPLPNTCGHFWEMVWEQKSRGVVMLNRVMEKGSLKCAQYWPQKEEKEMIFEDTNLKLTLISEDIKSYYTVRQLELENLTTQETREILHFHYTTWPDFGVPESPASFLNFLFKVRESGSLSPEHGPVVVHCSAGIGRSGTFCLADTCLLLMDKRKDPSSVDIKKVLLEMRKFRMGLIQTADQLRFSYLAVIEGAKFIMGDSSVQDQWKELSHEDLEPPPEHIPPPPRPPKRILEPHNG
Protocol: Assay was done according to the Kit manufacturers protocol, in brief the reaction was carried out in 96 well flat bottomed microtiter plate by the addition of assay buffer, solution of test compounds and diluted PTP1B enzyme. Enzyme reaction was initiated by addition of 50 μl of warmed 2× substrate then incubated the plate at 30° C. for 30 min. After incubation for 30 min. Reaction was terminated by addition of 25 μl of biomol red reagent and mixed thoroughly by repeated pipetting. […] Volumes and dilution of other component were accordingly as instructed in the manual provided in the kit. PTP1B phosphatase acting on the phosphopeptide substrate and release phosphate. The detection of free phosphate released is based on classic Malachite green assay. After adding biomol red to reaction wells after 30 minutes of incubation as described earlier the plate was incubated for another 20 min to develop the colour. Absorbance was recorded at 620 nm. on a microplate reader.

[2] = Table 5, evaluated at 10 μM concentration

With `COC(=O)c1c(SC)cc(-c2ccc(F)cc2)c2c1-c1cn(-c3ccccc3)nc1CC2` [compound 8, methyl 6-(4-fluorophenyl)-8-(methylthio)-2-phenyl-4,5-dihydro-2H-benzo[e]indazole-9-carboxylate] the melting point was 182 to 184 °C and the inhibition at 10 µM [1, 2] was 14.6%.

Compound `COC(=O)c1c(SC)cc(-c2ccc3ccc4cccc5ccc2c3c45)c2c1-c1cn(-c3ccccc3)nc1CC2` [compound 9, methyl 8-(methylthio)-2-phenyl-6-(pyren-1-yl)-4,5-dihydro-2H-benzo[e]indazole-9-carboxylate] has a melting point of 174 to 176 °C and an inhibition at 10 µM [1] of 10.7%.

`COC(=O)c1c(S(C)(=O)=O)cc(-c2ccc(F)cc2)c2c1-c1cn(-c3ccccc3)nc1CC2` [compound 10, methyl 6-(4-fluorophenyl)-8-(methylsulfonyl)-2-phenyl-4,5-dihydro-2H-benzo[e]indazole-9-carboxylate] gave a melting point of 245 to 247 °C and an inhibition at 10 µM [1, 2] of 1.52%.

`COC(=O)c1c(S(C)(=O)=O)cc(-c2cccc3ccccc23)c2c1-c1cn(-c3ccccc3)nc1CC2` [compound 11, methyl 8-(methylsulfonyl)-6-(naphthalen-1-yl)-2-phenyl-4,5-dihydro-2H-benzo[e]indazole-9-carboxylate] gave a melting point of 204 to 206 °C and an inhibition at 10 µM [1, 2] of 18.8%.

`COC(=O)c1c(S(C)(=O)=O)cc(-c2ccc(C)cc2)c2c1-c1cn(-c3ccccc3)nc1CC2` [compound 12, methyl 8-(methylsulfonyl)-2-phenyl-6-(p-tolyl)-4,5-dihydro-2H-benzo[e]indazole-9-carboxylate] showed a melting point of 228 to 230 °C and an inhibition at 10 µM [1, 2] of 26.4%.
